Reference: PubChem BioAssay AID248 (DTP/NCI, 2004)
“And” between values parts separate entries of the source, which are not always exact repeats. Equal entries are not always repeated. Toxic doses and inconclusive results are not listed.

Test system: L1210 leukemia ip in BDF1 mice, survival T/C
Experiment: NCI In Vivo Anticancer Drug Screen. Data for tumor model L1210 Leukemia (intraperitoneal) in B6D2F1 (BDF1) mice
Settings: endpoint: mean survival time, higher = longer survival
Summary of the method: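 Ratio derived from survival: compound-dosed mice over vehicle-dosed mice, all bearing a transplantable tumor.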

[1] = dose: 100.0 mg/kg/injection, schedule: Q01DX001 (ip), vehicle: Klucel (hydroxypropylcellulose) (HPC)
[2] = dose: 200.0 mg/kg/injection, schedule: Q01DX001 (ip), vehicle: Klucel (hydroxypropylcellulose) (HPC)
[3] = dose: 400.0 mg/kg/injection, schedule: Q01DX001 (ip), vehicle: Klucel (hydroxypropylcellulose) (HPC)
[4] = dose: 12.5 mg/kg/injection, schedule: Q04DX003 (ip), vehicle: saline
[5] = dose: 25.0 mg/kg/injection, schedule: Q04DX003 (ip), vehicle: saline
[6] = dose: 50.0 mg/kg/injection, schedule: Q04DX003 (ip), vehicle: saline
[7] = dose: 100.0 mg/kg/injection, schedule: Q04DX003 (ip), vehicle: Klucel (hydroxypropylcellulose) (HPC)
[8] = dose: 200.0 mg/kg/injection, schedule: Q04DX003 (ip), vehicle: Klucel (hydroxypropylcellulose) (HPC)
[9] = dose: 400.0 mg/kg/injection, schedule: Q04DX003 (ip), vehicle: Klucel (hydroxypropylcellulose) (HPC)

For `O=S1(=O)C(Cl)c2ccccc2-c2ccccc2C1Cl` (stereo not given), the T/C (dose: 25.0 mg/kg/injection, schedule: Q04DX002 (ip), vehicle: gum acacia) was 89 % of control, the T/C (dose: 50.0 mg/kg/injection, schedule: Q04DX002 (ip), vehicle: gum acacia) was 89 % of control and the T/C (dose: 100.0 mg/kg/injection, schedule: Q04DX002 (ip), vehicle: gum acacia) was 93 % of control.

`CC(=O)N(c1ccccc1)c1ccc([N+](=O)[O-])cc1[N+](=O)[O-]` was tested, and the T/C (dose: 100.0 mg/kg/injection, schedule: Q01DX001 (ip), vehicle: carboxymethylcellulose (CMC)) was 107 % of control, the T/C (dose: 177.0 mg/kg/injection, schedule: Q01DX001 (ip), vehicle: carboxymethylcellulose (CMC)) was 94 % of control and 115 % of control and the T/C (dose: 200.0 mg/kg/injection, schedule: Q01DX001 (ip), vehicle: carboxymethylcellulose (CMC)) was 96 % of control. For the same molecule, the T/C (dose: 266.0 mg/kg/injection, schedule: Q01DX001 (ip), vehicle: carboxymethylcellulose (CMC)) was 97 % of control and 103 % of control, the T/C (dose: 400.0 mg/kg/injection, schedule: Q01DX001 (ip), vehicle: carboxymethylcellulose (CMC)) was 97 % of control and 100 % of control and the T/C (dose: 600.0 mg/kg/injection, schedule: Q01DX001 (ip), vehicle: carboxymethylcellulose (CMC)) was 100 % of control and 105 % of control.

`O=C(CNC(=O)OCc1ccccc1)NC(Cc1c[nH]c2ccccc12)C(=O)OCc1ccccc1` (stereo not given) was tested, and the T/C (dose: 100.0 mg/kg/injection, schedule: Q04DX003 (ip), vehicle: saline with Tween-80) was 96 % of control, the T/C (dose: 200.0 mg/kg/injection, schedule: Q04DX003 (ip), vehicle: saline with Tween-80) was 100 % of control and the T/C (dose: 400.0 mg/kg/injection, schedule: Q04DX003 (ip), vehicle: saline with Tween-80) was 95 % of control.

`CC(/C=N/NC(N)=S)Cc1ccc(C(C)C)cc1` (stereo not given) was tested, and the T/C (dose: 12.5 mg/kg/injection, schedule: Q04DX003 (ip), vehicle: saline with Tween-80) was 98 % of control, the T/C (dose: 18.0 mg/kg/injection, schedule: Q01DX009 (ip), vehicle: alcohol) was 95 % of control and the T/C (dose: 28.0 mg/kg/injection, schedule: Q01DX009 (ip), vehicle: alcohol) was 95 % of control.

`O=C(O)C[S+]1CCSCC1` was tested, and the T/C (dose: 100.0 mg/kg/injection, schedule: Q04DX002 (ip), vehicle: saline) was 105 % of control, the T/C (dose: 200.0 mg/kg/injection, schedule: Q04DX002 (ip), vehicle: saline) was 105 % of control and the T/C (dose: 400.0 mg/kg/injection, schedule: Q04DX002 (ip), vehicle: saline) was 105 % of control.

In the case of `O=S(Sc1ccc(N(CCCl)CCCl)cc1)c1ccc(N(CCCl)CCCl)cc1` (stereo not given), the T/C [1] is reported as 95 % of control, the T/C (dose: 100.0 mg/kg/injection, schedule: Q01DX009 (ip), vehicle: gum acacia) is reported as 86 % of control and the T/C [2] is reported as 108 % of control. For the same molecule, the T/C (dose: 200.0 mg/kg/injection, schedule: Q01DX009 (ip), vehicle: gum acacia) was 93 % of control, the T/C [3] was 93 % of control and the T/C (dose: 400.0 mg/kg/injection, schedule: Q01DX009 (ip), vehicle: gum acacia) was 122 % of control.

`CCC[As](=O)(O)CC(C)C` was tested, and the T/C (dose: 6.25 mg/kg/injection, schedule: Q01DX001 (ip), vehicle: saline) was 102 % of control, the T/C (dose: 6.25 mg/kg/injection, schedule: Q01DX009 (ip), vehicle: saline) was 119 % of control and the T/C (dose: 12.5 mg/kg/injection, schedule: Q01DX001 (ip), vehicle: saline) was 98 % of control. For the same molecule, the T/C (dose: 12.5 mg/kg/injection, schedule: Q01DX009 (ip), vehicle: saline) was 101 % of control and 108 % of control, the T/C [4] was 94 % of control and the T/C (dose: 25.0 mg/kg/injection, schedule: Q01DX001 (ip), vehicle: saline) was 101 % of control. The T/C (dose: 25.0 mg/kg/injection, schedule: Q01DX009 (ip), vehicle: saline) was 162 % of control, the T/C (dose: 25.0 mg/kg/injection, schedule: Q04DX002 (ip), vehicle: saline) was 97 % of control and the T/C [5] was 113 % of control. For the same molecule, the T/C (dose: 50.0 mg/kg/injection, schedule: Q01DX001 (ip), vehicle: saline) was 104 % of control, the T/C (dose: 50.0 mg/kg/injection, schedule: Q04DX002 (ip), vehicle: saline) was 103 % of control and the T/C [6] was 95 % of control.

`O=Cc1cc(Br)c(O)c(Br)c1` was tested, and the T/C (dose: 50.0 mg/kg/injection, schedule: Q04DX003 (ip), vehicle: Klucel (hydroxypropylcellulose) (HPC)) was 100 % of control, the T/C [7] was 101 % of control and the T/C [8] was 100 % of control.

In the case of `C[CH2][Sn]([Cl])([Cl])[CH2]C.Oc1ccccc1C=NCCN=Cc1ccccc1O`, the T/C (dose: 5.0 mg/kg/injection, schedule: Q01DX009 (ip), vehicle: saline with Tween-80) is reported as 98 % of control, the T/C (dose: 5.0 mg/kg/injection, schedule: Q04DX003 (ip), vehicle: saline with Tween-80) is reported as 106 % of control and the T/C (dose: 10.0 mg/kg/injection, schedule: Q01DX009 (ip), vehicle: saline with Tween-80) is reported as 97 % of control. The T/C (dose: 10.0 mg/kg/injection, schedule: Q04DX003 (ip), vehicle: saline with Tween-80) was 100 % of control and the T/C (dose: 20.0 mg/kg/injection, schedule: Q04DX003 (ip), vehicle: saline with Tween-80) was 108 % of control.

`CCCCCCCCCCCCC#N` was tested, and the T/C (dose: 100.0 mg/kg/injection, schedule: Q01DX009 (ip), vehicle: Klucel (hydroxypropylcellulose) (HPC)) was 111 % of control, the T/C [7] was 110 % of control and the T/C (dose: 200.0 mg/kg/injection, schedule: Q01DX009 (ip), vehicle: Klucel (hydroxypropylcellulose) (HPC)) was 119 % of control. For the same molecule, the T/C [8] was 113 % of control, the T/C (dose: 400.0 mg/kg/injection, schedule: Q01DX009 (ip), vehicle: Klucel (hydroxypropylcellulose) (HPC)) was 100 % of control and the T/C [9] was 117 % of control.

For `CCCCCCCCC(=O)C[N+](=O)[O-]`, the T/C (dose: 18.8 mg/kg/injection, schedule: Q01DX009 (ip), vehicle: saline) was 97 % of control, the T/C (dose: 18.8 mg/kg/injection, schedule: Q04DX003 (ip), vehicle: saline) was 106 % of control and the T/C (dose: 37.5 mg/kg/injection, schedule: Q01DX009 (ip), vehicle: saline) was 95 % of control. For the same molecule, the T/C (dose: 37.5 mg/kg/injection, schedule: Q04DX003 (ip), vehicle: saline) was 95 % of control, the T/C (dose: 75.0 mg/kg/injection, schedule: Q01DX001 (ip), vehicle: saline) was 93 % of control and the T/C (dose: 75.0 mg/kg/injection, schedule: Q01DX009 (ip), vehicle: saline) was 99 % of control. The T/C (dose: 75.0 mg/kg/injection, schedule: Q04DX003 (ip), vehicle: saline) was 95 % of control.

For `CCC(=O)c1ccc(NC(=O)Nc2ccc(C(=O)CC)cc2)cc1`, the T/C (dose: 20.0 mg/kg/injection, schedule: Q01DX009 (ip), vehicle: saline) was 96 % of control, the T/C (dose: 40.0 mg/kg/injection, schedule: Q01DX009 (ip), vehicle: saline) was 93 % of control and the T/C (dose: 80.0 mg/kg/injection, schedule: Q01DX009 (ip), vehicle: saline) was 102 % of control. The T/C (dose: 160.0 mg/kg/injection, schedule: Q01DX009 (ip), vehicle: saline) was 95 % of control and the T/C (dose: 320.0 mg/kg/injection, schedule: Q01DX009 (ip), vehicle: saline) was 92 % of control.

For `CCC[N+](C)(C)CCCOC(=O)C1C2CC3OC(=O)C1C3C2` (stereo not given), the T/C [4] was 106 % of control, the T/C [5] was 100 % of control and the T/C [6] was 100 % of control. The T/C (dose: 100.0 mg/kg/injection, schedule: Q04DX003 (ip), vehicle: saline) was 97 % of control and the T/C (dose: 200.0 mg/kg/injection, schedule: Q04DX003 (ip), vehicle: saline) was 91 % of control.

In the case of `CS(=O)(=O)OCCN(CCOS(C)(=O)=O)c1ccc(C=Nc2cc(Cl)c(O)c(Cl)c2)cc1`, the T/C (dose: 20.0 mg/kg/injection, schedule: Q04DX003 (ip), vehicle: Klucel (hydroxypropylcellulose) (HPC)) is reported as 107 % of control, the T/C (dose: 40.0 mg/kg/injection, schedule: Q04DX003 (ip), vehicle: Klucel (hydroxypropylcellulose) (HPC)) is reported as 120 % of control and the T/C (dose: 80.0 mg/kg/injection, schedule: Q04DX003 (ip), vehicle: Klucel (hydroxypropylcellulose) (HPC)) is reported as 86 % of control. The T/C [7] was 110 % of control.

With `O=[N+]([O-])c1cccc(C=Nc2cc(Cl)ccc2Cl)c1` the T/C (dose: 75.0 mg/kg/injection, schedule: Q04DX003 (ip), vehicle: Klucel (hydroxypropylcellulose) (HPC)) was 106 % of control, the T/C [1] was 101 % of control and the T/C (dose: 150.0 mg/kg/injection, schedule: Q04DX003 (ip), vehicle: Klucel (hydroxypropylcellulose) (HPC)) was 95 % of control. The T/C [2] was 107 % of control, the T/C (dose: 300.0 mg/kg/injection, schedule: Q04DX003 (ip), vehicle: Klucel (hydroxypropylcellulose) (HPC)) was 98 % of control and the T/C [3] was 102 % of control.

`O=C(CCCC(=O)N1CCOCC1)N1CCOCC1` was tested, and the T/C [7] was 108 % of control, the T/C [8] was 103 % of control and the T/C [9] was 101 % of control.
